Data on four compounds can be found in publication PMC4226669, “Anti-cancer potency of tasquinimod is enhanced via albumin-binding facilitating increased uptake in the tumor microenvironment” (Oncotarget, 2014).

Each structure is given as a SMILES string. “Also recorded” adds a separate entry of the source. Read-outs that look alike come from different tables or passages of the source.

One data set in a line: Water solubility. It is filed as physicochemical.
Data set [1] relates to human umbilical vein endothelial cells (HUVECs). The data set can be described thus: 3D in vitro endothelial sprouting and tube formation assay. The conditions noted are these: for IC50: Homo sapiens, HUVEC, 3D-HUVEC sprouting assay, read-out: IC50 (concentration of drug which inhibits by 50% the endothelial sprouting). It is filed as cell-based. The source says: A three-dimensional (3D) in vitro endothelial sprouting and tube formation assay was utilized to define the anti-angiogenic potency of tasquinimod vs. these metabolites. In this 3D assay, human umbilical endothelial cells (i.e., HUVECs) are initially grown on microcarrier beads and the cell coated beads embedded in fibrin gels with media conditioned by normal human lung fibroblasts. Under these 3D-conditions, endothelial cells “sprout” producing 3D neovessel tubes with patent lumen within one week, Figure 4A - left panel. When tasquinimod is added at the initiation to these 3D-cultures, sprouting of the endothelial cells is inhibited, Figure 4B-right panel, with the potency for such inhibition, expressed as an IC50 value (i.e., the concentration of drug which inhibits by 50% the endothelial sprouting) of 0.5 μM, Figure 4C. […] Using this 3D-HUVEC assay, the potency (i.e., expressed as IC50) of tasquinimod metabolites to inhibit endothelial sprouting was compared to tasquinimod. […] To further confirm that tasquinimod itself and not the carboxamide-N-demethylated metabolite is the active drug, the response to ketoconazole alone and in combination with tasquinimod was tested in the 3D-endothelial sprouting assay.
The 3-dimensional (3D) in vitro angiogenic sprouting and tube formation assay was used as described previously. This 3D-endothelial sprouting assay was conducted using a minimum of 5 replicate wells per drug dose per experiment, repeated 3 independent times using human umbilical vein endothelial cells (HUVECs; Lonza Walkersville, Inc.) with modification that 20 μL of 10X concentrated Dulbecco's Modified Eagle's Media/10%FCS media conditioned by confluent human primary lung fibroblasts (Lonza) diluted to 200 μL of growth factor supplemented EGM-2 media (Lonza) was used instead of fibroblast co-culture.

The test system of another data set is HUVEC cells. The data set can be described thus: In vitro cell metabolism in HUVEC. It counts as in vitro ADME, human. The conditions noted are these: HUVEC exposed to 1 μM 14C-labeled tasquinimod, 48 hours. As for the experimental part: The nuclear uptake results are consistent with tasquinimod being the active drug for both direct therapeutic effects on cancer cells and indirect effects via suppression of the angiogenic response of host endothelial cells. To confirm these conclusions, the concentration of tasquinimod metabolites produced by endothelial cells was compared to the potency of these metabolites for inhibiting angiogenesis. When HUVEC cells are exposed to 1 μM of ^14C-labeled tasquinimod for 48 hours, < 15% of the drug is metabolized with 10% (i.e., 100 nM) being converted to the quinoline-O-demethylated compound and < 2% (i.e., < 20 nM) being converted to the quinoline-N-demethylated or carboxamide-N-demethylated compounds.
For in vitro studies, cells were incubated with 1μM ^14C-labeled tasquinimod for indicated time period and then the media and cells or cell nuclei separately harvested, deproteinated with acetonitrile, and metabolites separated by HPLC and quantitated as described above.

The subject of data set [2] is CWR-22Rv1 human prostate cancer xenografts. The data set can be described thus: Dose-response growth inhibition of established CWR-22Rv1 xenografts (subcutaneous daily injection). It is filed as in vivo, mouse. To be noted: 20 days. As for the experimental part: To confirm these in vitro results, mice were inoculated subcutaneously (SQ) with CWR-22Rv1 cells and remained untreated until the tumors grew to ~ 200 mm3 (i.e., ~ 200 mgs) and then they were randomly assigned to groups (n=10) which were injected SQ daily with 100 μl of propylene glycol vehicle only vs. vehicle delivering 0.1 or 1 mg/kg/day of either tasquinimod or its carboxamide-N-demethylated metabolite. Propylene glycol was used as vehicle due to the low water solubility of the carboxamide-N-demethylated metabolite. After 20 days of continuous treatment, the experiment was terminated and the total weight of each cancer determined and the results expressed both as average tumor weight in grams and as the ratio of the weight of the cancers in the treated vs. vehicle control animals (i.e., T/C ratio), Figure 5A.
(§1) The source, history, and characteristics of the human prostate cancer cell lines (i.e., LNCaP, LAPC4, and CWR-22Rv1 and the human umbilical vascular endothelial cells (HUVEC) used, as well as cell culture conditions for their in vitro maintenance and the in vivo protocol for their xenografting into immune-deficient nude male mice are as described previously. The source, history, and characteristics of the TRAMP-C2 mouse prostate cancer line, as well as cell culture conditions for their in vitro maintenance and the in vivo protocol for their growth in intact adult male syngeneic C57Bl/6J are as described previously. All lines were mycoplasma negative using the MycoSensor PCR Assay kit (Agilent Technologies) and genetically authenticated within the last 6 months using short tandem repeat profiling conducted by the Johns Hopkins Genetic Resource Core Facility. The source, history, and characteristics of the CWR-RH human prostate cancer xenograft are as described previously. In vitro growth curves were determined as described. Animal studies were conducted according to animal protocol MO09M434 approved by Johns Hopkins Animal Care and Use Committee. Daily drug dosing via oral gavage, the drinking water, or subcutaneous injection, as well as tumor volume measurements and determination of the blood vessel density within cancers, were as described previously. These experiments were repeated at 3 independent times for each xenograft.

The nature of data set [3]: Tissue distribution and metabolites in nude mice bearing CWR-22Rv1 cancers. It counts as in vivo, mouse. To be noted: 4 hours post oral 5mg/kg tasquinimod; for concentration at 4 h: male, nude, mouse. As for the experimental part:
To determine the concentration of metabolites, nude mice bearing CWR-22Rv1 prostate cancers were orally administered with 5 mg/kg of ^14C- radiolabeled tasquinimod and 4 and 24 hours later, blood plasma and liver, kidney, and cancer tissue harvested and analyzed for determination of metabolites. […] The predominant metabolite is the O-demethylated quinoline compound, Figure 2A&B, but the concentration of the hydroxylated aromatic quinoline and the N-demethylated quinoline compounds, along with the O-demethylated quinoline compound are also higher in the liver than the blood at the time point studied, Figure 2B. Also in the kidney 40% of the drug is present as metabolites, with the concentration of the hydroxylated aromatic quinoline and the O-demethylated quinoline compounds being higher than in the blood, Figure 2B. In contrast, within the cancer > 80% of the total concentration of drug is present as parent tasquinimod, Figure 2B. Only the O-demethylated quinoline compound is present at a higher concentration in the cancer than blood, Figure 2B. The plasma concentration of total metabolites is < 10% at 4 hours, Figure 2B, and 24 hours post oral dosing with 5 mg/kg, Figure 2A.
Male nude mice bearing 200-300mm^3 CWR-22Rv1 cancers were given ^14C-labeled tasquinimod at a dose of 5 mg/kg via oral gavage. At times ranging from 30 min to 24 hour, groups of 4-6 mice were anaesthetized with ketamine and 1 ml of heparinized blood collected by cardiac puncture, followed by subsequent cardiac perfusion of saline to remove blood associated drug. An aliquot of liver, kidney, and cancer was removed, weighed and then homogenized. The radioactivity in 10 μL aliquots of tissue homogenates and blood plasma was determined using a liquid scintillation counter and used to calculate the total amount of tasquinimod plus its metabolites per gram of tissue or per ml of blood. The remaining sample volume was deproteinated with acetonitrile and the radioactivity of an aliquot of the supernatant determined and the remaining supernatant lyophilized, resuspended initially with 0.1mL dimethyl sulfoxide and diluted by the addition of 0.9mL deionized water prior to injection into the HPLC. The HPLC system consisted of Waters pumps using a Waters gradient controller to deliver mobile phase at a flow rate of 1mL per minute using a Supelcosil ABZ+ C18 column that is 150mm long by 4.6mm diameter and has 5μm particle size. The metabolites were separated using a linear gradient in which the starting mobile phase was 35% acetonitrile: 65% water: 0.1% Trifluoroacetic acid (TFA) increasing to 50% acetonitrile: 50% water: 0.1%TFA over 25 minutes, and then increased rapidly to 98% acetonitrile: 2% water: 0.1%TFA and held until 33 minutes before it is returned to the initial conditions for the next run. Fractions were collected and the radioactivity determined by scintillation counting. As controls, the individual elution time of non-radiolabeled standard solutions of the various tasquinimod metabolites was determined using UV absorption at 215nm. The results were expressed as concentration based upon tissue volume, assuming 1gram wet weight equals 1ml, or normalized to tissue vascular volume.

The test system of data set [4] is CYP-3A. Details: method as in PMID 15764719. The conditions noted are these: read-out: IC50 for inhibition of CYP-3A; cited from earlier work.
For data set [5], the system named is CYP-3A. Details: method as in PMID 21391977. To be noted: oral dose of 25mg/kg/day; cited from earlier work.
The test system of data set [6] is CWR-22RH human prostate cancer. The data set can be described thus: Tumor take of CWR-22RH xenografts in castrated nude mice. It is filed as in vivo, mouse. As for the experimental part: To confirm this conclusion, castrated male nude mice were xenografted with the castrate resistant CWR-22RH human prostate cancer tissue and the animals immediately randomized into groups (n=10) which were: 1) left untreated as controls; 2) given daily oral treatment with tasquinimod alone via the drinking water (10mg/kg/day); 3) given oral ketoconazole alone via oral gavage at a daily dose which inhibits cytochrome P450 3A4 (i.e., 25 mg/kg/day); or 4) given a combination of the two drugs. […] These combined in vitro/in vivo results document tasquinimod, not one of its metabolites, is the active drug.
as §1

The mark [7] stands for this setting: CWR-22Rv1 cancer tissue, CWR-22Rv1 cancer, 1gm tissue = 1ml, read-out: concentration in CWR-22Rv1 cancer.
Where [8] appears, read: kidney, 1gm tissue = 1ml, read-out: concentration in kidney.
Setting [9] is: liver, 1gm tissue = 1ml, read-out: concentration in liver.
[10] abbreviates: plasma, read-out: concentration in plasma.

In the case of `COc1cccc2c1c(O)c(C(=O)Nc1ccc(C(F)(F)F)cc1)c(=O)n2C` [Carboxamide-N-demethylate], the water solubility entry in the data set “Water solubility” is given as “low”. Also, the IC50 in data set [1] came out at 0.25 µM. Moreover, the “fold more potent than tasquinimod (lower IC50) in inhibiting endothelial sprouting” value in data set [1] (relative to tasquinimod) was 2 fold. Further, the “concentration of metabolite formed” value in the data set with HUVEC cells is reported as less than 20 nM. Besides, the “fraction of tasquinimod converted to the metabolite” value (shortened to “fraction of tasquinimod converted”) in the data set with HUVEC cells was less than 2%. For the same compound, the “Avg Tumor Weight” value is 0.891 ± 0.263 g in data set [2] (0.1 mg/kg/day SQ) and 0.724 ± 0.223 g in data set [2] (1 mg/kg/day SQ). The “T/C Ratio” value worked out at 0.512 in data set [2] (0.1 mg/kg/day SQ) and 0.415 in data set [2] (1 mg/kg/day SQ). For the same compound, in data set [3] (CWR-22Rv1 cancer), the “percentage of total drug in CWR-22Rv1 cancer” value is listed as less than 1%. In addition, the “percentage of total drug in kidney” value in data set [3] (kidney) is on record as less than 1%. Moreover, the “percentage of total drug in liver” value in data set [3] (liver) is less than 1%. In addition, the concentration at 4 h in data set [3] (setting [7]) is less than 30 nM; in data set [3] (setting [8]), less than 30 nM; in data set [3] (setting [9]), less than 130 nM; in data set [3] (setting [10]) it was less than 60 nM. Also, in data set [3] (plasma), the “percentage of total drug in plasma” value is less than 1%.

Turning to `CC(=O)N1CCN(c2ccc(OCC3COC(Cn4ccnc4)(c4ccc(Cl)cc4Cl)O3)cc2)CC1` (stereo not drawn) [ketoconazole], the IC50 with CYP-3A [4] is […]. For the same compound, in the data set on CYP-3A [5], the “inhibition of CYP-3A” value is more than 90%. Moreover, the “effect of ketoconazole on tasquinimod's inhibition of 3D HUVEC sprouting” value in data set [1] (10 μM ketoconazole simultaneously present with 1 μM tasquinimod) is “does not affect; also recorded: does not prevent inhibition; also recorded: does not suppress”. Moreover, the “inhibition of endothelial sprouting” value in data set [1] (ketoconazole alone, 10 μM) is recorded as “did not inhibit”. In addition, the “effect of ketoconazole on anti-cancer efficacy of tasquinimod” value in data set [6] (ketoconazole 25 mg/kg/day combined with tasquinimod 10mg/kg/day) is “does not affect; also recorded: does not inhibit the therapeutic efficacy of tasquinimod; also recorded: does not suppress”. Moreover, the “tumor take and growth” value in data set [6] (ketoconazole alone 25 mg/kg/day via oral gavage from inoculation) is given as “does not inhibit either the take or growth”.

With `CN(C(=O)c1c(O)c2c(O)cccc2n(C)c1=O)c1ccc(C(F)(F)F)cc1` [Quinoline-O-demethylate], the IC50 in data set [1] turned out to be 30 µM. Moreover, the “concentration of metabolite formed” value with HUVEC cells is listed as 100 nM. Moreover, in the data set with HUVEC cells, the “fraction of tasquinimod converted” value is recorded as 10%. The “percentage of total drug in CWR-22Rv1 cancer” value in data set [3] (CWR-22Rv1 cancer) was 17+/- 4%. Moreover, the “percentage of total drug in kidney” value in data set [3] (kidney) is listed as 36+/-4%. In addition, the “percentage of total drug in liver” value in data set [3] (liver) is 62+/-7%. The concentration at 4 h in data set [3] (setting [7]) is 460 nM; in data set [3] (setting [8]), 1400 nM; in data set [3] (setting [9]), 8100 nM; in data set [3] (setting [10]) it was 300 nM. The “percentage of total drug in plasma” value in data set [3] (plasma) is listed as 5+/-1%.

In the case of `COc1cccc2[nH]c(=O)c(C(=O)N(C)c3ccc(C(F)(F)F)cc3)c(O)c12` [Quinoline-N-demethylate], the IC50 in data set [1] came to 20 µM. Moreover, the “concentration of metabolite formed” value with HUVEC cells is less than 20 nM. Further, the “fraction of tasquinimod converted” value with HUVEC cells is recorded as less than 2%. The “percentage of total drug in CWR-22Rv1 cancer” value in data set [3] (CWR-22Rv1 cancer) is on record as less than 1%. The “percentage of total drug in kidney” value in data set [3] (kidney) is listed as less than 1%. Moreover, the “percentage of total drug in liver” value in data set [3] (liver) was 2+/-1%. In addition, the concentration at 4 h in data set [3] (setting [7]) is less than 30 nM; in data set [3] (setting [8]), less than 30 nM; in data set [3] (setting [9]), 260 nM; in data set [3] (setting [10]), less than 60 nM. In addition, in data set [3] (plasma), the “percentage of total drug in plasma” value is less than 1%.
